Measurements taken from US12043600B2, “Microbiocidal compounds” (SYNGENTA CROP PROTECTION AG, priority 2018, dated 2024).
Read-outs that look alike come from different tables or passages of the source.

Legend:
Alternaria solani = test: Alternaria solani/Tomato/Leaf Disc (Early Blight); assay type: in vivo; details: foliar, tomato leaf disc, compared to untreated control
Procedure, shortened: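 Protective leaf-disc test: compound sprayed onto tomato cv. Baby disks, spore inoculation following after 2 days. Disks kept at 80% rh, 12/12 h light/dark, 23° C. day and 21° C. night; activity read as percent disease control relative to untreated checks 5-7 days post-application.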

[1] = test system: Monographella nivalis (Microdochium nivale); test: Monographella nivalis (Microdochium nivale)/Liquid Culture (Foot Rot Cereals); assay type: cell-based; details: liquid culture, compared to untreated control
Procedure, shortened: (§1)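 PDB + cryo-stored conidia; compound in DMSO pre-plated, spore broth added on top.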

[2] = test system: Mycosphaerella graminicola (Septoria tritici); test: Mycosphaerella graminicola (Septoria tritici)/Liquid Culture (Septoria Blotch); assay type: cell-based; details: Zymoseptoria tritici; 20 ppm; liquid culture; compared to untreated control
Procedure, shortened: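 Results given as % disease control: test compound in DMSO was placed in wells first, then potato dextrose broth carrying cryostored fungal conidia was added.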

[3] = test system: Puccinia recondita f. sp. tritici; test: Puccinia recondita f. sp. tritici/Wheat/Leaf Disc Curative (Brown Rust); assay type: in vivo; details: foliar, wheat leaf disc curative, compared to untreated control
Procedure, shortened: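 Formulated compound, diluted in water, is applied to inoculated wheat cv. Kanzler leaf segments on agar one day post-inoculation (pre-incubation dark, 19° C, 75% rh). After 6-8 days at 19° C, 75% rh and 12 h/12 h light, activity is rated as percent disease control relative to untreated segments.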

Phytophthora infestans = test: whole plant or invertebrate; assay type: in vivo; details: in Solanum lycopersicum, foliar, read-out: control of Phytophthora infestans
Pythium ultimum = test: Pythium ultimum/Liquid Culture (Seedling Damping Off); assay type: cell-based; details: Globisporangium ultimum, liquid culture, compared to untreated control
Protocol: Mycelia fragments and oospores of a newly grown liquid culture of the fungus are directly mixed into nutrient broth (PDB potato dextrose broth). After placing a (DMSO) solution of test compound into a microtiter plate (96-well format), the nutrient broth containing the fungal mycelia/spore mixture is added.

[4] = test system: Puccinia recondita f. sp. tritici; test: Puccinia recondita f. sp. tritici/Wheat/Leaf Disc Preventative (Brown Rust); assay type: in vivo; details: foliar, 200 ppm, wheat leaf disc preventative, compared to untreated control, read-out: control of Puccinia recondita f. sp. tritici
Plasmopara viticola = test: whole plant or invertebrate; assay type: in vivo; details: foliar, read-out: control of Plasmopara viticola
[5] = test system: Mycosphaerella arachidis (Cercospora arachidicola); test: Mycosphaerella arachidis (Cercospora arachidicola)/Liquid Culture (Early Leaf Spot); assay type: cell-based; details: liquid culture, compared to untreated control
Procedure, shortened: as §1

[6] = test system: Glomerella lagenarium (Colletotrichum lagenarium); test: Glomerella lagenarium (Colletotrichum lagenarium)/Liquid Culture (Anthracnose); assay type: cell-based; details: Colletotrichum orbiculare, liquid culture, compared to untreated control
[7] = test system: Magnaporthe grisea (Pyricularia oryzae); test: whole plant or invertebrate; assay type: in vivo; details: foliar, read-out: control of Magnaporthe grisea
[8] = test system: Blumeria graminis f. sp. tritici (Erysiphe graminis f. sp. tritici); test: Blumeria graminis f. sp. tritici/Wheat/Leaf Disc Preventative (Powdery Mildew on Wheat); assay type: in vivo; details: foliar, wheat leaf disc preventative, compared to untreated control
Procedure, shortened: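 Preventative leaf-disc test: percent disease control versus untreated leaf segments read 6-8 days post-application. Compound spray applied to wheat cv. Kanzler segments on agar one day before shaking infected plants over them; incubation at 20° C and 60% rh, 24 h darkness then 12 h light/12 h dark cycles.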

Phakopsora pachyrhizi = test: Phakopsora pachyrhizi/Soybean/Preventative (Soybean Rust); assay type: in vivo; details: 288 h
[9] = test system: Botryotinia fuckeliana (Botrytis cinerea); test: Botryotinia fuckeliana (Botrytis cinerea)/Liquid Culture (Gray Mould); assay type: cell-based; details: liquid culture, compared to untreated control
Protocol: Conidia of the fungus from cryogenic storage are directly mixed into nutrient broth (Vogels broth). After placing a (DMSO) solution of test compound into a microtiter plate (96-well format), the nutrient broth containing the fungal spores is added.

[10] = Photostability assay (Atlas Suntest); assay type: physicochemical; details: Suntest 750 W/m^2, spotted on microscope slides
Procedure, shortened: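 Compound (2 μl of 1 g/L methanol stock) spotted on glass slides and irradiated at 750 W/m^2 in a Suntest. Slides were washed with H2O:MeCN:THF 50:40:10 and analysed by reverse-phase UPLC-PDA; peak area versus initial gave % parent remaining at 3 hours.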

Sclerotinia sclerotiorum = test: Sclerotinia sclerotiorum/Liquid Culture (Cottony Rot); assay type: cell-based; details: liquid culture, compared to untreated control
Protocol: Mycelia fragments of a newly grown liquid culture of the fungus are directly mixed into nutrient broth (PDB potato dextrose broth). After placing a (DMSO) solution of test compound into a microtiter plate (96-well format) the nutrient broth containing the fungal material is added.

[11] = test system: Phaeosphaeria nodorum (Septoria nodorum); test: Phaeosphaeria nodorum (Septoria nodorum)/Wheat/Leaf Disc Preventative (Glume Blotch); assay type: in vivo; details: Parastagonospora nodorum, foliar, wheat leaf disc preventative, compared to untreated control
Procedure, shortened: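 Preventative test: compound spray first, then spore inoculation after 2 days on cv. Kanzler wheat leaf segments. Incubation in a climate cabinet at 20 °C and 75% rh under a 12 h light/12 h dark cycle. Activity rated as % control relative to untreated discs at 5–7 days post-application.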

[12] = test system: Thanatephorus cucumeris (Rhizoctonia solani); test: Thanatephorus cucumeris (Rhizoctonia solani)/Liquid Culture (Foot Rot, Damping-Off); assay type: cell-based; details: liquid culture, compared to untreated control
Protocol: Mycelia fragments of a newly grown liquid culture of the fungus are directly mixed into nutrient broth (PDB potato dextrose broth). After placing a (DMSO) solution of the test compounds into a microtiter plate (96-well format), the nutrient broth containing the fungal material is added.

[13] = foliar, soybean leaf disc preventative, compared to untreated control, read-out: control of Phakopsora pachyrhizi

CO/C=C(\Oc1cc(-n2ccc(C(C)C)n2)cc(OC)c1C)C(=O)OC [Compound E-21, methyl (Z)-2-[5-(3-isopropylpyrazol-1-yl)-3-methoxy-2-methyl-phenoxy]-3-methoxy-prop-2-enoate]
pest or weed control at 200 ppm (Alternaria solani): ≥ 80% | inhibition of growth at 20 ppm [1]: ≥ 80% | inhibition of growth at 20 ppm [2]: ≥ 80% | pest or weed control at 200 ppm [3]: ≥ 80% | pest or weed control at 200 ppm (Phytophthora infestans): ≥ 80% | melting point: 90 to 92 °C | inhibition of growth at 20 ppm (Pythium ultimum): ≥ 80% | pest or weed control at 200 ppm [4]: ≥ 80% | pest or weed control at 200 ppm (Plasmopara viticola): ≥ 80% | inhibition of growth at 20 ppm [5]: ≥ 80% | inhibition of growth at 20 ppm [6]: ≥ 80%

CO/C=C(\Oc1cc(-n2cc(C3CCC3)cn2)ccc1C)C(=O)OC [Compound E-80, methyl (Z)-2-[5-(4-cyclobutylpyrazol-1-yl)-2-methyl-phenoxy]-3-methoxy-prop-2-enoate]
pest or weed control at 200 ppm (Alternaria solani): ≥ 80% | inhibition of growth at 20 ppm [1]: ≥ 80% | inhibition of growth at 20 ppm [2]: ≥ 80% | pest or weed control at 200 ppm [3]: ≥ 80% | pest or weed control at 200 ppm [7]: ≥ 80% | pest or weed control at 200 ppm [8]: ≥ 80% | pest or weed control at 200 ppm (Phytophthora infestans): ≥ 80% | pest or weed control at 200 ppm (Phakopsora pachyrhizi; [13]): ≥ 50% | inhibition of growth at 20 ppm (Pythium ultimum): ≥ 80% | inhibition of growth at 20 ppm [9]: ≥ 80% | pest or weed control at 200 ppm [4]: ≥ 80% | pest or weed control at 200 ppm (Plasmopara viticola): ≥ 80% | inhibition of growth at 20 ppm [5]: ≥ 80% | inhibition of growth at 20 ppm [6]: ≥ 80%

CO/C=C(\Oc1cc(-n2ccc(C(C)(F)F)n2)ccc1C)C(=O)OC [Compound E-68, methyl (Z)-2-[5-[3-(1,1-difluoroethyl)pyrazol-1-yl]-2-methyl-phenoxy]-3-methoxy-prop-2-enoate]
pest or weed control at 200 ppm (Alternaria solani): ≥ 80% | inhibition of growth at 20 ppm [1]: ≥ 80% | inhibition of growth at 20 ppm [2]: ≥ 80% | % Parent Remaining @ 3 hrs [10]: 40% | pest or weed control at 200 ppm [3]: ≥ 80% | pest or weed control at 200 ppm [7]: ≥ 80% | pest or weed control at 200 ppm [8]: ≥ 80% | inhibition of growth at 20 ppm (Sclerotinia sclerotiorum): ≥ 80% | melting point: 119 to 121 °C | inhibition of growth at 20 ppm (Pythium ultimum): ≥ 80% | pest or weed control at 200 ppm [11]: ≥ 80% | pest or weed control at 200 ppm [4]: ≥ 80% | inhibition of growth at 20 ppm [12]: ≥ 80% | pest or weed control at 200 ppm (Plasmopara viticola): ≥ 80% | inhibition of growth at 20 ppm [5]: ≥ 80% | inhibition of growth at 20 ppm [6]: ≥ 80%

CO/C=C(\Oc1cc(-n2ccc(C(C)(C)C)n2)ccc1C)C(=O)OC [Compound E-103, methyl (Z)-2-[5-(3-tert-butylpyrazol-1-yl)-2-methyl-phenoxy]-3-methoxy-prop-2-enoate]
inhibition of growth at 20 ppm [1]: ≥ 80% | inhibition of growth at 20 ppm [2]: ≥ 80% | pest or weed control at 200 ppm [3]: ≥ 80% | pest or weed control at 200 ppm [7]: ≥ 80% | pest or weed control at 200 ppm [8]: ≥ 80% | pest or weed control at 200 ppm (Phytophthora infestans): ≥ 80% | pest or weed control at 200 ppm (Phakopsora pachyrhizi; [13]): ≥ 50% | inhibition of growth at 20 ppm (Pythium ultimum): ≥ 80% | inhibition of growth at 20 ppm [9]: ≥ 80% | pest or weed control at 200 ppm [11]: ≥ 80% | pest or weed control at 200 ppm [4]: ≥ 80% | pest or weed control at 200 ppm (Plasmopara viticola): ≥ 80% | inhibition of growth at 20 ppm [5]: ≥ 80% | inhibition of growth at 20 ppm [6]: ≥ 80%

CO/C=C(\Oc1cc(-n2ccc(C(C)C)n2)ccc1C)C(=O)OC [Compound E-92, methyl (Z)-2-[5-(3-isopropylpyrazol-1-yl)-2-methyl-phenoxy]-3-methoxy-prop-2-enoate]
inhibition of growth at 20 ppm [1]: ≥ 80% | inhibition of growth at 20 ppm [2]: ≥ 80% | % Parent Remaining @ 3 hrs [10]: 33% | pest or weed control at 200 ppm [7]: ≥ 80% | pest or weed control at 200 ppm [8]: ≥ 80% | pest or weed control at 200 ppm (Phytophthora infestans): ≥ 80% | pest or weed control at 0.6 ppm (Phakopsora pachyrhizi; Phakopsora pachyrhizi (Soybean rust), 0.6 ppm): 0% | pest or weed control at 2 ppm (Phakopsora pachyrhizi; Phakopsora pachyrhizi (Soybean rust), 2 ppm): 0% | pest or weed control at 6 ppm (Phakopsora pachyrhizi; Phakopsora pachyrhizi (Soybean rust), 6 ppm): 35% | pest or weed control at 20 ppm (Phakopsora pachyrhizi; Phakopsora pachyrhizi (Soybean rust), 20 ppm): 90% | pest or weed control at 60 ppm (Phakopsora pachyrhizi; Phakopsora pachyrhizi (Soybean rust), 60 ppm): 100% | pest or weed control at 200 ppm (Phakopsora pachyrhizi; Phakopsora pachyrhizi (Soybean rust), read-out: control (%)): 100% | melting point: 88 to 91 °C | inhibition of growth at 20 ppm (Pythium ultimum): ≥ 80% | inhibition of growth at 20 ppm [9]: ≥ 80% | pest or weed control at 200 ppm [11]: ≥ 80% | pest or weed control at 200 ppm (Plasmopara viticola): ≥ 80% | inhibition of growth at 20 ppm [5]: ≥ 80% | inhibition of growth at 20 ppm [6]: ≥ 80%

CO/C=C(\Oc1cc(-n2ccc(C3CCCC3)n2)ccc1C)C(=O)OC [Compound E-5, methyl (Z)-2-[5-(3-cyclopentylpyrazol-1-yl)-2-methyl-phenoxy]-3-methoxy-prop-2-enoate]
inhibition of growth at 20 ppm [1]: ≥ 80% | inhibition of growth at 20 ppm [2]: ≥ 80% | pest or weed control at 200 ppm [3]: ≥ 80% | pest or weed control at 200 ppm [7]: ≥ 80% | pest or weed control at 200 ppm (Phytophthora infestans): ≥ 80% | inhibition of growth at 20 ppm (Pythium ultimum): ≥ 80% | inhibition of growth at 20 ppm [9]: ≥ 80% | pest or weed control at 200 ppm [4]: ≥ 80% | pest or weed control at 200 ppm (Plasmopara viticola): ≥ 80% | inhibition of growth at 20 ppm [5]: ≥ 80% | inhibition of growth at 20 ppm [6]: ≥ 80%
